Drawing on publication PMC12113540, “Isolation and Characterization of L-Asparaginase-Producing Bacteria from the Arabian–Persian Gulf Region: First Report on Bacillus xiamenensis ASP-J1-4 as a Producer and Its Potential Application” (Marine Drugs, 2025), this text covers Km for 1 molecule.

The subject of the experiment is T1, ASP-J1-4 L-ASNase.
T1 construct: gene ansZ; native enzyme from culture broth, acetone precipitation, dialysis, DEAE-Sepharose; 36 kDa (37 kDa in abstract) by SDS-PAGE; no L-glutaminase activity
In words: ammonia release, Nessler's reagent, A436; Lineweaver-Burk plot. It counts as biochemical, Bacillus xiamenensis. Conditions: 0.02-2.42 mM L-ASN; regular assay conditions (pH and temperature not restated for kinetics).

For the molecule `NC(=O)C[C@H](N)C(=O)O` [L-ASN], the Km turned out to be 150 µM.

Broadly, the Km is the substrate concentration at which the rate is half of its maximum.
